Reference: US10640441B2, “Difluorinated compounds as depigmenting or lightening agents” (TFCHEM, priority 2016, dated 2020)
“And” between values parts separate entries of the source, which are not always exact repeats. Equal values may be shown once.

Key:
human tyrosinase = experiment: Inhibition of human tyrosinase in-tubo (HumanLike Tyrosinase Assay kit, Feldan); format: biochemical; conditions: 1.12 mM
Description: The efficacy of compound 8 was evaluated by the inhibition of human tyrosinase in-tubo and compared to the prior art compound deoxyarbutin.
The assay was performed with a ready-to-use kit from Feldan Inc (Canada): the HumanLike Tyrosinase Assay kit (ref A021-a-001Kit).
The protocol was performed as described in the instructions for use of the manufacturer. Briefly, this kit is intended for the determination of human tyrosinase activity in presence of different inhibitors. The kit measures the conversion of L-Tyrosine into a dopachrome complex absorbing at 490 nm. The time course of the assay is 20 minutes, after which the results are analyzed and compared.
The compound 8 and deoxyarbutin have been tested at a final concentration of 1.12 mM. The measured absorbances at 490 nm are reported in the table 1 and plotted in function of time in the FIG. 1.
Moreover for each compound the efficacy as tyrosinase inhibitor was calculated using the following formula: […]

NHEM culture = experiment: Determination of the higher non-cytotoxic concentration on NHEM culture; format: cell-based, human
Description: The compounds have been tested beforehand at different concentrations on the NHEM culture to determine the higher non-cytotoxic concentration to be used to evaluate the potential inhibition of melanin synthesis. The determined concentration was 300 μM for all compounds: 8, 16, 28a.

[1] = tested on: normal human epidermal melanocytes (NHEM); experiment: Inhibition of melanin synthesis in L-tyrosine-stimulated human epidermal melanocytes; format: cell-based; conditions: 300 μM; stimulation by L-tyrosine (1 mM); 240 hours; n=3
Description: Human melanocytes are stimulated by L-tyrosine to induce an increase of the melanin synthesis and be able to measure an inhibition of this synthesis when a whitening agent is added.
Biological model: normal human epidermal melanocytes (NHEM), lightly pigmented, were cultured in medium M254 supplemented with PMA free HMGS-2; Insulin 5 ag/ml; Penicillin 50 U/ml; Streptomycin 50 ag/ml; Gentamycin 25 μg/ml (incubator: 37° C. and 5% CO2).
Culture and treatment: melanocytes were seeded in 24-well plates and cultured in culture medium for 24 hours. The medium was then replaced by culture medium containing the test compounds or not (stimulated control) in presence of the inducer (L-tyrosine at 1 mM). The cells were then incubated for 240 hours with 2 treatment renewals after 72 and 168 hours of incubation. A non-stimulated control was performed in parallel. All experimental conditions were performed in n=3.
Melanin assay: at the end of incubation, the culture supernatants were removed and the melanin was extracted by cell lysis using a 0.5 N NaOH solution. The optical density (OD) of each experimental point was measured at 405 nm and melanin quantity was calculated using melanin standards (standard curve 0.39 to 100 μg/ml melanin). Results were expressed in […] of melanin.

Inhibitor efficacy (%) (human tyrosinase; T = 20 min)	OD at 490 nm (human tyrosinase; time 0 min)	OD at 490 nm (human tyrosinase; time 1 min)	OD at 490 nm (human tyrosinase; time 2 min)	OD at 490 nm (human tyrosinase; time 3 min)	OD at 490 nm (human tyrosinase; time 4 min)	OD at 490 nm (human tyrosinase; time 5 min)	OD at 490 nm (human tyrosinase; time 6 min)	OD at 490 nm (human tyrosinase; time 7 min)	OD at 490 nm (human tyrosinase; time 8 min)	OD at 490 nm (human tyrosinase; time 9 min)	OD at 490 nm (human tyrosinase; time 10 min)	OD at 490 nm (human tyrosinase; time 11 min)	OD at 490 nm (human tyrosinase; time 12 min)	OD at 490 nm (human tyrosinase; time 13 min)	OD at 490 nm (human tyrosinase; time 14 min)	OD at 490 nm (human tyrosinase; time 15 min)	SMILES	higher non-cytotoxic concentration (NHEM culture) [µM]	Melanin synthesis (μg/ml), single replicates [1]	Melanin synthesis, Mean [1] [µg/mL]	other results
32.0	0.0000	0.0080	0.0170	0.0245	0.0345	0.0415	0.0505	0.0610	0.0675	0.0755	0.0845	0.0935	0.1015	0.1090	0.1165	0.1255	Oc1ccc(O[C@@H]2[C@H](O)[C@@H](O)CCC2(F)F)cc1 [Compound 8]	300	9.2 μg/ml (2×) and 9.4 μg/ml	9.3	times better efficacy than deoxyarbutin on human tyrosinase inhibition (human tyrosinase; T = 20 min): 3.4 times; OD at 490 nm (human tyrosinase; time 16 min): 0.1355; OD at 490 nm (human tyrosinase; time 17 min): 0.1405; OD at 490 nm (human tyrosinase; time 18 min): 0.1495; OD at 490 nm (human tyrosinase; time 19 min): 0.1575; OD at 490 nm (human tyrosinase; time 20 min): 0.1665
–	–	–	–	–	–	–	–	–	–	–	–	–	–	–	–	–	N[C@@H]1CCCC(F)(F)[C@@H]1Oc1ccc(O)cc1 [Compound 28a]	300	9.9 µg/mL and 10.5 µg/mL and 10.2 µg/mL	10.2	–
–	–	–	–	–	–	–	–	–	–	–	–	–	–	–	–	–	Oc1ccc(OC2C(O)CCCC2(F)F)cc1 (racemic) [Compound 16]	300	7.9 μg/ml and 8.2 μg/ml (2×)	8.1	–
9.4	0.0000	0.0100	0.0195	0.0290	0.0385	0.0480	0.0585	0.0695	0.0800	0.0935	0.1035	0.1155	0.1265	0.1385	0.1500	0.1615	Oc1ccc(OC2CCCCO2)cc1 (stereo not drawn) [Deoxyarbutin, deoxyarbutin, reference compound]	–	–	–	OD at 490 nm (human tyrosinase; time 16 min): 0.1735; OD at 490 nm (human tyrosinase; time 17 min): 0.1846; OD at 490 nm (human tyrosinase; time 18 min): 0.1975; OD at 490 nm (human tyrosinase; time 19 min): 0.2095; OD at 490 nm (human tyrosinase; time 20 min): 0.2220
